Test results reported in article PMC10383864, “Novel 2-Sulfanylquinazolin-4(3H)-one Derivatives as Multi-Kinase Inhibitors and Apoptosis Inducers: A Synthesis, Biological Evaluation, and Molecular Docking Study” (Molecules, 2023).

Columns and labels:
HepG2 cells [1] = test: Flow cytometry analysis of cell cycle; format: cell-based, human; details: HepG2, 7.1 µM, 24 h
Experimental: (§1) In order to investigate apoptosis, the most cytotoxic compound in anti-proliferative assay 5d was further exposed to […] using the standard Annexin V/PI double staining procedure.
Flow cytometry analysis was conducted to assess the effect of compound 5d on the cell cycle distribution in HepG2 cells. The Flow Cytometry Kit for cell cycle analysis (ab139418_Propidium Iodide Flow Cytometry Kit/BD) was used in this test. First, the HepG2 cells were seeded in six-well plates at a density of 2 × 10^5 cells/well and incubated for 24 h. In the second step, 10% FBS was added, and the cells were incubated at 37 °C and 5% CO2. The medium was replaced with (DMSO 1% v/v) containing 7.1 µM of compound 5d and then incubated for 24 h. After that, the cells were fixed with 70% ethanol at 4 °C for 12 h and washed with cold PBS, and then rinsed with PBS. In the last step, 100 μL of RNase A was added to each well and incubated at 37 °C for 30 min and stained with 400 μL PI in the dark at room temperature for an additional 30 min. The stained cells were measured using an Epics XL-MCL™ Flow Cytometer (Beckman Coulter), and the data were analyzed using Flowing software (version 2.5.1, Turku Centre for Biotechnology, Turku, Finland).

HepG2 cells [2] = test: Annexin V-FITC/PI apoptosis assay; format: cell-based, human; details: HepG2, 7.1 µM, 24 h
Experimental: as §1
The apoptotic and necrotic effect of compound 5d was investigated using flow cytometry, as described in [43]. The HepG2 cells were treated with 7.1 µM of compound 5d for 24 h. After treatment, the cells were collected by trypsinization, centrifuged, and washed two times with PBS. A suspension of cells in 500 μL binding buffer was double stained with 5 μL Annexin V-FITC and 5 μL PI in the dark at room temperature for 15 min. The stained cells were measured using an Epics XL-MCL™ Flow Cytometer (Beckman Coulter), and the data were analyzed using Flowing software (version 2.5.1, Turku Centre for Biotechnology, Turku, Finland).

WI38 cells = test: MTT cytotoxicity assay, normal human cell line; format: cell-based; details: 24 h treatment, mean ± SD of three experiments, read-out: In Vitro Cytotoxicity IC50 WI38
Experimental: (§2) In addition, the safety profile of the 2-sulfanylquinazolin-4(3H)-one derivatives was evaluated against normal human cells (WI38) […]. The standard MTT (3-(4,5-dimethylthiazol-2-yl)-2,5 diphenyl tetrazolium bromide) colorimetric assay protocol was used, as described by Mosmann. […] The results were expressed as growth inhibitory concentration (IC50) values.
(§3) The cell lines were obtained from ATCC (American Type Culture Collection). […] After incubation, the cells were treated with different concentrations of the synthesized compounds and incubated for 24 h. Afterward, the cells were washed with PBS, and 20 µL of MTT solution at 5 mg/mL was added, all incubated for 4 h. The MTT solution was discarded, and 100 µL of dimethyl sulfoxide (DMSO) was added per well. […] The relative cell viability in percentage was calculated as (A570 of treated cells/A570 of untreated cells) × 100.

[3] = MTT cytotoxicity assay, normal human cell line; format: cell-based; details: human, WI38 cells (normal human cells), 24 h treatment, mean ± SD of three experiments, read-out: In Vitro Cytotoxicity IC50 WI38
Experimental: as §2, §3

VEGFR2 = biological target: T1, VEGFR2 (Homo sapiens, UniProt P35968); test: Kinase inhibition, ELISA kit; format: biochemical; details: mean ± SD of three experiments
T1 construct: purchased
Experimental: . The corresponding kinase inhibitory kit assays were used, and the results are expressed as IC50 values (µM), as presented in Table 2. […]. The inhibitory activity of compound 5d against CDK2, HER2, EGFR, and VEGFR2 was evaluated using the corresponding human kinases ELISA kit (Enzyme-Linked Immunosorbent Assay). In brief, specific antibodies for each kinase were seeded on a 96-well plate, and 100 μL of the standard solution or compound 5d was added. Afterward, the plate was incubated at room temperature for 2.5 h and then washed with PBS. A total of 100 μL of the prepared biotin antibody was added and incubated at room temperature for an additional 1 h, and then 100 μL of streptavidin solution was added and incubated at room temperature for another 45 min. After washing, 100 μL of TMB substrate reagent was added and incubated for 30 min at room temperature. Finally, about 50 μL of the stop solution was added and then read at 450 nm immediately. A standard curve was drawn, with concentrations on the X-axis and absorbance on the Y-axis.

T1 sequence (P35968 20-1356): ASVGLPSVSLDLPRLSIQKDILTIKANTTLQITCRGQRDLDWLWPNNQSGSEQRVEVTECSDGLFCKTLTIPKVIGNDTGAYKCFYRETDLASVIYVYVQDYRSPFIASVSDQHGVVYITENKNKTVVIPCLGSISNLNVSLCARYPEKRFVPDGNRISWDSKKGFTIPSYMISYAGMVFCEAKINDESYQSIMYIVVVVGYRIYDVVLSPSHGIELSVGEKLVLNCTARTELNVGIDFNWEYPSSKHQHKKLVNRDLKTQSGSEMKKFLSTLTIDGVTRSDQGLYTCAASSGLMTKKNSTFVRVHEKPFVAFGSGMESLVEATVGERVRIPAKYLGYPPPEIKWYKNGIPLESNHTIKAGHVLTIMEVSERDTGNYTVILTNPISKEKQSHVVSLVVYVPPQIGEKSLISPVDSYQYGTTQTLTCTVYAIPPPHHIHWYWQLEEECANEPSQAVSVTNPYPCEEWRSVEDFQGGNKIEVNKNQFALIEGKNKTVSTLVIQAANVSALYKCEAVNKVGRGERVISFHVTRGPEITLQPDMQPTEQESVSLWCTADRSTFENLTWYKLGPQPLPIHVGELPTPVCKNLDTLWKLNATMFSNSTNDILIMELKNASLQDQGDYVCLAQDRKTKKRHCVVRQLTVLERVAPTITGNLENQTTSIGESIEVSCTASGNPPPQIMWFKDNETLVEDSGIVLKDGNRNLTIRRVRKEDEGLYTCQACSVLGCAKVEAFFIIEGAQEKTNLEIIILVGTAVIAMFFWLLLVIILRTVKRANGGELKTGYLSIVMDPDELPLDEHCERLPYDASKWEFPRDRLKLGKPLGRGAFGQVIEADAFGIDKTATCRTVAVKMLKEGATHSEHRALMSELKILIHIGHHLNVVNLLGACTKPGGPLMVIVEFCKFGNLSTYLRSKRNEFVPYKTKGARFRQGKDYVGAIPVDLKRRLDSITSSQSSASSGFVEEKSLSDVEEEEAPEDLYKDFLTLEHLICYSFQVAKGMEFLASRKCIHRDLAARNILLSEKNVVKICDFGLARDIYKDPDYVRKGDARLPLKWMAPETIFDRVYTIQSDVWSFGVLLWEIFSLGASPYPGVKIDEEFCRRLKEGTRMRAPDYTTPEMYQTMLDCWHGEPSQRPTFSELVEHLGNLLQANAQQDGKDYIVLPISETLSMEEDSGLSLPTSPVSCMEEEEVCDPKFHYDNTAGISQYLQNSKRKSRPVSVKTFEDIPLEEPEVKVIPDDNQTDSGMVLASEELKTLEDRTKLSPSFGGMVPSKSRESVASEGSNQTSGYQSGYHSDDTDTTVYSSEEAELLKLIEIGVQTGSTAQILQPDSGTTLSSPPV

With `Cc1ccc(-n2c(SCc3ccc(Cl)cc3)nc3ccc(F)cc3c2=O)cc1` [Compound 5d, 2-(4-Chloro-benzylsulfanyl)-6-fluoro-3-(4-methylArenyl)-3H-quinazolin-4-one] the “phase of cell cycle arrest” value (HepG2 cells [1]) was “S phase”, the “drop in the cell population at the G0-G1 phase” value (HepG2 cells [1]; in comparison to the control) was 4.5% and the “drop in the cell population at the G2/M phase” value (HepG2 cells [1]; in comparison to the control) was 4.73%. The “increase in the cell population in the S phase” value (HepG2 cells [1]; in comparison to the control) was 9.23%, the “necrosis, % of cell population” value (HepG2 cells [2]; control 1.45%) was 3.08% and the “total apoptosis, % of cell population” value (HepG2 cells [2]; control 2.28%) was 28.04%. For the same compound, the IC50 (WI38 cells) was 64.3 ± 3.5 µM, the IC50 at 24 h [3] was 40.9 µM and the IC50 (VEGFR2) was 0.336 ± 0.009 µM.
